According to patent publication US20040152785A1, “Novel crystal of n-hydroxy-2 (s)-methyl-5-ethoxymethoxy-4(s)-[n-(4-phenoxyphenylcarbonyl)amino] pentanamide, process for their production and medicines containing the crystals as the active ingredient” (priority 2000, published 2004):

Legend:
[1] = Stability test: preservation of crystal powder, DSC caloric transition (ΔH) and X-ray diffraction; format: physicochemical
Experimental: Weighing out over approximately 50 mg of type-A crystal powder, it was preserved under the condition of
1) 40° C., 75% RH (relative humidity), unsealed for a month,
2) 40° C., sealed tightly for 6 months.
The type-A crystal preserved under above conditions and another type-A crystal which was preserved at 5° C. were subjected to measurement of differential scanning calorimetry (DSC) and caloric transition (ΔH) per 1 g was calculated from endothermic peak chart (see FIGS. 14-16)
ΔH=peak area/sample weight

[2] = Oral absorption test: capsule formulations given orally to fed beagles, concentration in plasma; format: in vivo; conditions: beagle, 50 mg/kg
Experimental: The compound of the present invention (2 g), DK ester SS (Daiichi Kogyo Seiyaku) and lactose (2.9 g) were weighed and the mixture was mixed slightly in a mortar and the mixture was filtered through 60 mesh strainer twice to give pharmaceutical powder. The pharmaceutical powder was filled in No.0 gelatin capsule 250 mg/cap each. By this method, capsule formulations containing type-A and type-C crystal were prepared respectively.
A beagle was fed with solid food (240 g) and after 30 minutes above prepared capsules were administered in a stomach using sonde for oral administration and tap water (20 ml) was administered with sonde for oral administration.
After administration, 15 minutes, 30 minutes, 1 hour, 2 hours and 3 hours taken a blood of 1 ml from cephalic vein using heparin dealt syringe. The taken sample was disposed under 12000 rpm for 2 minutes and plasma was separated and the concentration of the compound in plasma (μg/ml) was measured.
The dose given to the beagle was 50 mg/kg and 4 beagles for type-A crystal and 3 beagles for type-C crystal.

matrix metalloproteinase = conditions: as disclosed in WO 99/19296; cited from earlier work

SMILES: CCOCOC[C@H](C[C@H](C)C(=O)NO)NC(=O)c1ccc(Oc2ccccc2)cc1 [Type-A crystal, N-hydroxy-2(S)-methyl-5-ethoxymethoxy-4(S)-[N-(4-phenoxyphenylcarbonyl)amino]pentanamide]
- ΔH (calorie variation of endothermic peak, absolute value) ([1]; 1 month, 40° C.-75% RH, unsealed): 14.80 J/g
- ΔH (calorie variation of endothermic peak, absolute value) ([1]; 6 months, 40° C., sealed tightly): 13.41 J/g
- crystal stability (crystal transition on preservation) ([1]; 40° C.-75% RH a month and 40° C. 6 months, DSC and X-ray diffraction): stable crystal
- ΔH (calorie variation of endothermic peak, absolute value) ([1]; initial (type-A crystal preserved at 5° C.)): 13.40 J/g
- concentration in plasma, comparison of crystals [2]: higher concentration in plasma than type-C crystal
- AUC ([2]; dog, plasma, po, AUC (area under the blood concentration-time curve), average value, sampling up to 3 hours): 5100 ng·h/mL
- Cmax ([2]; dog, plasma, po, plasma, read-out: Cmax (maximum drug concentration), average value): 3600 ng/mL

SMILES: CCOCOC[C@H](C[C@H](C)C(=O)NO)NC(=O)c1ccc(Oc2ccccc2)cc1 [Type-C crystal, N-hydroxy-2(S)-methyl-5-ethoxymethoxy-4(S)-[N-(4-phenoxyphenylcarbonyl)amino]pentanamide, reference compound]
- Cmax (maximum drug concentration), average value ([2]; plasma): 2000 ng/mL
- AUC (area under the blood concentration-time curve), average value ([2]; plasma, sampling up to 3 hours): 3500 ng·h/mL

SMILES: CCOCOC[C@H](C[C@H](C)C(=O)NO)NC(=O)c1ccc(Oc2ccccc2)cc1 [compound (I), N-hydroxy-2(S)-methyl-5-ethoxymethoxy-4(S)-[N-(4-phenoxyphenylcarbonyl)amino]pentanamide]
- inhibitory activity against matrix metalloproteinase (MMP) (matrix metalloproteinase): has an inhibitory activity against matrix metalloproteinase
